ChEMBL document CHEMBL1201862, “PubChem BioAssay data set” (2004)
Active and inactive are the calls of the source.

Experiments:
[1] = intracellular Trypanosoma cruzi inhibitors in host cells – cell-based, plate reader, cherry-pick samples, set 3, dose response (AID 651818); assay type: functional;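 further: compounds incubated with infected cells for about four days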
[2] = mouse fibroblast viability loss – cell-based, cherry-pick samples, set 2, cytotoxicity control for T. cruzi growth inhibitor project, dose response (AID 651817); assay type: functional; conditions: NIH3T3
[3] = blockers of HIV-1 envelope-mediated cell-cell fusion – cherry-pick, dose response (AID 652057); assay type: functional, cell-based
[4] = HIV-1 AD8 envelope cell-cell fusion blockers – cherry-pick, dose response (AID 652062); assay type: functional, cell-based;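 further: luciferase signal from cell-cell fusion driven by HIV-1 clade B AD8 Env; potency is for inhibitors of fusion seen as a drop in luminescence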
[5] = viability loss in CEM21 cells – cell-based, CellTiter-Glo luminescence, cherry-picked, cytotoxicity control for viral fusion inhibitor project, dose response (AID 652042); assay type: functional;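 further: potency for signal decrease meaning cytotoxicity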
[6] = target: Metabotropic glutamate receptor 5 (Rattus norvegicus, UniProt P31424); assay: Identification of a glycine sulfonamide based non-MPEP site positive allosteric potentiator (PAM) of mGlu5 (calcium_assay).; assay type: functional
[7] = MITF Orthogonal Assay: SK-MEL-5 CTG Assay Measured in Cell-Based System Using Plate Reader - 2084-02_Inhibitor_Dose_DryPowder_Activity_Set7.; assay type: functional
[8] = inhibitors of TRPM1-promoter reporter in SK-MEL-5 – cell-based, luciferase, dry powder, set 8, MITF inhibitor project, dose response (AID 624430); assay type: functional
[9] = MITF: Counter assay: A375 proliferation Measured in Cell-Based System Using Plate Reader - 2084-03_Inhibitor_Dose_DryPowder_Activity_Set8.; assay type: functional; conditions: A-375
[10] = viability loss in HepG2 hepatoma cells – cell-based, cherry-picks, set 5, cytotoxicity control, dose response (AID 1053118); assay type: functional
[11] = target: Endoplasmic reticulum aminopeptidase 1 (Homo sapiens, UniProt Q9NZ08); assay: inhibition of human ERAP1 enzyme activity – biochemical, cherry-pick, set 2, plate reader, dose response (AID 743314)
[12] = target: Metabotropic glutamate receptor 3 (Rattus norvegicus, UniProt P31422); assay: inhibition of rat mGlu3 glutamate signaling – HEK/GIRK cells, thallium flux, dose response (AID 651839); assay type: functional
[13] = kidney cell line viability loss – HEK293T, luminescence plate reader, powder samples, set 4, cytotoxicity control, dose response (AID 651863); assay type: functional, cell-based; conditions: HEK293
[14] = target: Arf-GAP with SH3 domain, ANK repeat and PH domain-containing protein 1 (Homo sapiens, UniProt Q9ULH1); assay type: functional;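 further: biochemical fluorescence polarization dose–response screen measuring inhibition of ASAP1; ASAP1 GAP domain stimulating GTP hydrolysis by truncated human ARF1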
[15] = target: ADP-ribosylation factor GTPase-activating protein 1 (Rattus norvegicus, UniProt Q62848); assay: Fluorescence polarization-based biochemical high throughput dose response screening assay to identify inhibitors of ADP-ribosylation factor GTPase activating protein 1 (ARFGAP1).; assay type: functional
Galanin receptor type 3 = Galanin receptor type 3 (Homo sapiens, UniProt O60755); assay: Fluorescence-based cell-based primary high throughput dose response assay to identify antagonists of the Galanin Receptor 3 (GalR3).; assay type: functional
cells = assay type: functional, cell-based; conditions: HEK-CNG
[16] = target: T1, Aryl hydrocarbon receptor (Homo sapiens, UniProt P35869); conditions: Potency;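 further: confirmatory quantitative high-throughput screen measuring activation of the AhR signaling pathway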
T1 sequence (P35869 whole entry): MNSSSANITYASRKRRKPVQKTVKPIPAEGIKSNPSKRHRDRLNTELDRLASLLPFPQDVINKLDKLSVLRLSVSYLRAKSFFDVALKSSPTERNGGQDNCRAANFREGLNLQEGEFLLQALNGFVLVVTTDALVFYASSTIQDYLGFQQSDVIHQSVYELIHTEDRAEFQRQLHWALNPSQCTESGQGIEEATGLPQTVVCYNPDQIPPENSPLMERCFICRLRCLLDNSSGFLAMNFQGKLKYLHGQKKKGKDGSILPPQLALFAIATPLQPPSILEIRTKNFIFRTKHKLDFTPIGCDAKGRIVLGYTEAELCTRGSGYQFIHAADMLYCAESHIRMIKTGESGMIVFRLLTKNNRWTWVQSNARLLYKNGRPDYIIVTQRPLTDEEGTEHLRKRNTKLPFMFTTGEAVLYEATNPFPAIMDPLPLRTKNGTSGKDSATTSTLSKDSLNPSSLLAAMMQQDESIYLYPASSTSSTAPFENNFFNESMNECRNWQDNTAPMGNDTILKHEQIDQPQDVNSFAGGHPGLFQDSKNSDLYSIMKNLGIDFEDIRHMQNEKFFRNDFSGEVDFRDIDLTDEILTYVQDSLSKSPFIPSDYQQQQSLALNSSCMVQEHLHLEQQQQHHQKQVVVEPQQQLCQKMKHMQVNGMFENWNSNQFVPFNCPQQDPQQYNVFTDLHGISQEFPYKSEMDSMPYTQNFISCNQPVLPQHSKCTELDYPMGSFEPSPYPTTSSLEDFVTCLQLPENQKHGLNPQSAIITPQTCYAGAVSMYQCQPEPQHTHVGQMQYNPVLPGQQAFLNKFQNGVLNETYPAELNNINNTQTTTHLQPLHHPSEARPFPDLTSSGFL

Sequence of ADP-ribosylation factor GTPase-activating protein 1 (Q62848 whole entry): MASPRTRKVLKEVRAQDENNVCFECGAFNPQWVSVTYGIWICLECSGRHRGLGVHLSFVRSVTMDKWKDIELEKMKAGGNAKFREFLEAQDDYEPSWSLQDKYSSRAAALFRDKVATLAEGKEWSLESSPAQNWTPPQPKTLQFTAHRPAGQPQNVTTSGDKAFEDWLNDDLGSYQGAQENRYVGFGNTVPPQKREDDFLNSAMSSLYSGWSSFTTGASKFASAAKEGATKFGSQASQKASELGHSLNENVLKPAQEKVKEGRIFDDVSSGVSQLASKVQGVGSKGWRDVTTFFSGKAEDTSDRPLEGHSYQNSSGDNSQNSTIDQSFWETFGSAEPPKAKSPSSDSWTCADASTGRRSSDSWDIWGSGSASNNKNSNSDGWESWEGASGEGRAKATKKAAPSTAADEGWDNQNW
Sequence of Metabotropic glutamate receptor 5 (P31424 whole entry): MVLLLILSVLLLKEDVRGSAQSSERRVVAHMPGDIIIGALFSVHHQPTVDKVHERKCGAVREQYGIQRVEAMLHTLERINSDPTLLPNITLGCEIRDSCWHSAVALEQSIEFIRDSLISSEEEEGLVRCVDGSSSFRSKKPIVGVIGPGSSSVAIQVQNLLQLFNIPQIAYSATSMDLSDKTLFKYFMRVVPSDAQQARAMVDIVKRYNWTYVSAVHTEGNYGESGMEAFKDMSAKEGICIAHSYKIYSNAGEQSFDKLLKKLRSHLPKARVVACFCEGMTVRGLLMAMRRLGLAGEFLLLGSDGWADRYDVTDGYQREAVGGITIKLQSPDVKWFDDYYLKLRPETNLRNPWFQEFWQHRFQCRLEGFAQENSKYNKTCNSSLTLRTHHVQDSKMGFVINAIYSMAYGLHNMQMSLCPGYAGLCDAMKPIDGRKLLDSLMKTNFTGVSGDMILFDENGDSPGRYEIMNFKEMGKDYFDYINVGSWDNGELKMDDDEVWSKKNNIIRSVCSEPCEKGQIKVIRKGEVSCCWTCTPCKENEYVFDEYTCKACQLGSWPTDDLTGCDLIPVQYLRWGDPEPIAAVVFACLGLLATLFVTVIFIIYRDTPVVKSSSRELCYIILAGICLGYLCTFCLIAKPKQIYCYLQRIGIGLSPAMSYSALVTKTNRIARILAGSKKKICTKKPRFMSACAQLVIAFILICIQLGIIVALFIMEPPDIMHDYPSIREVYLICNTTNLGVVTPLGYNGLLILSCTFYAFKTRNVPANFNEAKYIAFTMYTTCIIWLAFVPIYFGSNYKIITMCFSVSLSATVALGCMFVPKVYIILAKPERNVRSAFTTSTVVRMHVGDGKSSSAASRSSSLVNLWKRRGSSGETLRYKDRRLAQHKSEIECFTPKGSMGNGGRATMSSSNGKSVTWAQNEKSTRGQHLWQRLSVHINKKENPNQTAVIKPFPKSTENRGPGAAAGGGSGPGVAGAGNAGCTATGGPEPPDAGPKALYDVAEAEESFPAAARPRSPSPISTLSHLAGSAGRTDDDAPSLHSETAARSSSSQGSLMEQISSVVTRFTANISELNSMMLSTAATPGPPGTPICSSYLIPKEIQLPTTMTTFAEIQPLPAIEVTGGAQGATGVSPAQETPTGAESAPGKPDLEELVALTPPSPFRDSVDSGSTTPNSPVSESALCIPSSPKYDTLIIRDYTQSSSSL
Sequence of Galanin receptor type 3 (O60755 whole entry): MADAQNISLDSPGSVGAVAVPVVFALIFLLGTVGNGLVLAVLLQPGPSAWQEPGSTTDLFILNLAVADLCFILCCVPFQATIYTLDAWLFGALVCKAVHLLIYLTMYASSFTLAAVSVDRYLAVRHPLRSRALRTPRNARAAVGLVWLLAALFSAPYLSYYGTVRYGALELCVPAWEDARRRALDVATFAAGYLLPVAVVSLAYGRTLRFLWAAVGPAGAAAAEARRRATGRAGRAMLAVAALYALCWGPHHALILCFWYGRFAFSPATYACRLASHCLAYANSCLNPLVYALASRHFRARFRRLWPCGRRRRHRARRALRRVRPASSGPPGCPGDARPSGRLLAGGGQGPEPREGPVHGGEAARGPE
Sequence of Endoplasmic reticulum aminopeptidase 1 (Q9NZ08 whole entry): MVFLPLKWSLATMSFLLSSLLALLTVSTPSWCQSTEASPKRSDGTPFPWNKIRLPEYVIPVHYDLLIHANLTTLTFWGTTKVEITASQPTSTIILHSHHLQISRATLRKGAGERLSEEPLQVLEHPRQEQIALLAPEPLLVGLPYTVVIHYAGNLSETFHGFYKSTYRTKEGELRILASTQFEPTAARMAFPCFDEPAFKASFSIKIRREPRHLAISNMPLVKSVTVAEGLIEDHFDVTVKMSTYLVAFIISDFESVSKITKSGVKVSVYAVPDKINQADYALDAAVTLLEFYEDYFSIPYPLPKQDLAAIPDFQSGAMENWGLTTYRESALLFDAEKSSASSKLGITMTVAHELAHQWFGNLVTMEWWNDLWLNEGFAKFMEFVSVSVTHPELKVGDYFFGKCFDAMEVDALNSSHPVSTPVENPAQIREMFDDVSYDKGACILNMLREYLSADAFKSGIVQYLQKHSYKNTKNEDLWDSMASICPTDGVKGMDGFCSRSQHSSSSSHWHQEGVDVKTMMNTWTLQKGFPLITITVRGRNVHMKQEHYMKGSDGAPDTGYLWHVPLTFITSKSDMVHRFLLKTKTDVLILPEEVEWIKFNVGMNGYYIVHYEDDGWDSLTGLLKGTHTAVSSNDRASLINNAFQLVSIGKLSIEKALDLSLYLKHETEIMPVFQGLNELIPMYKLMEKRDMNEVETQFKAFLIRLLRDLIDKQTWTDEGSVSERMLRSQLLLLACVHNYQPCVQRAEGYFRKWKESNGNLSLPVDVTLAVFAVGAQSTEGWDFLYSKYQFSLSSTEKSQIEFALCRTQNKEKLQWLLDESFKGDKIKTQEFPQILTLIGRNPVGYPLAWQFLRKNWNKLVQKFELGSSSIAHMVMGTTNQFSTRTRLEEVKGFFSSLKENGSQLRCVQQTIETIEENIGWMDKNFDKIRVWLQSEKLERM
Sequence of Arf-GAP with SH3 domain, ANK repeat and PH domain-containing protein 1 (Q9ULH1 whole entry, the tested form may be a part): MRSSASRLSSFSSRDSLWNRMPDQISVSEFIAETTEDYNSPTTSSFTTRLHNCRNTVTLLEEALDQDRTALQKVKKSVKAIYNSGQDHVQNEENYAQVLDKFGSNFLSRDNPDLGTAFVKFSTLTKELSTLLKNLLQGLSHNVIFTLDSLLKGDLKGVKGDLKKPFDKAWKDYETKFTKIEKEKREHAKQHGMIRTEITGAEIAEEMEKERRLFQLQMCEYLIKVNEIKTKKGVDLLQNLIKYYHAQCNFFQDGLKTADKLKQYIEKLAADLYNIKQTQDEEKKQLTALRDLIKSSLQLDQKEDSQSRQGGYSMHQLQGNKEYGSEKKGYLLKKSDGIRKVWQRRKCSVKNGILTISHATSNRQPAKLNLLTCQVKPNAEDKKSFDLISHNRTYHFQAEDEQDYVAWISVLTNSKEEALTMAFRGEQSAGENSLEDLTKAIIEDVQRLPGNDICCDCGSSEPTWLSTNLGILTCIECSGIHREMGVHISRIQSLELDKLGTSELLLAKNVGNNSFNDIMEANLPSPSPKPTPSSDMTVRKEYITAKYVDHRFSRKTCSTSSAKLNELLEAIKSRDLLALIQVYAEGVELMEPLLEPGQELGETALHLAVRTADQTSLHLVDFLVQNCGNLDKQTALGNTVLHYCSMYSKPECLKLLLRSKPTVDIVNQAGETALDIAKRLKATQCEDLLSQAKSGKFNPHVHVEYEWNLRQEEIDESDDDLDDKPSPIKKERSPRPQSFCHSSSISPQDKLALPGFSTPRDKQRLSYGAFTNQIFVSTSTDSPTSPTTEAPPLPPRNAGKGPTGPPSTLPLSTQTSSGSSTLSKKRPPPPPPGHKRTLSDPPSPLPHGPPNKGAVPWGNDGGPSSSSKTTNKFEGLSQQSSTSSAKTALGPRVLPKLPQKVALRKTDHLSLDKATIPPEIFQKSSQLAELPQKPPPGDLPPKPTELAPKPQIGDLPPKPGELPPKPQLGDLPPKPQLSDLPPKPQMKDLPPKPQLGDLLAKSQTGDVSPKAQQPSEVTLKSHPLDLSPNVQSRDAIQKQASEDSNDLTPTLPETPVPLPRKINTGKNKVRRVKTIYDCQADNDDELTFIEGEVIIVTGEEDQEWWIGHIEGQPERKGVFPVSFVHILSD
Sequence of Metabotropic glutamate receptor 3 (P31422 whole entry): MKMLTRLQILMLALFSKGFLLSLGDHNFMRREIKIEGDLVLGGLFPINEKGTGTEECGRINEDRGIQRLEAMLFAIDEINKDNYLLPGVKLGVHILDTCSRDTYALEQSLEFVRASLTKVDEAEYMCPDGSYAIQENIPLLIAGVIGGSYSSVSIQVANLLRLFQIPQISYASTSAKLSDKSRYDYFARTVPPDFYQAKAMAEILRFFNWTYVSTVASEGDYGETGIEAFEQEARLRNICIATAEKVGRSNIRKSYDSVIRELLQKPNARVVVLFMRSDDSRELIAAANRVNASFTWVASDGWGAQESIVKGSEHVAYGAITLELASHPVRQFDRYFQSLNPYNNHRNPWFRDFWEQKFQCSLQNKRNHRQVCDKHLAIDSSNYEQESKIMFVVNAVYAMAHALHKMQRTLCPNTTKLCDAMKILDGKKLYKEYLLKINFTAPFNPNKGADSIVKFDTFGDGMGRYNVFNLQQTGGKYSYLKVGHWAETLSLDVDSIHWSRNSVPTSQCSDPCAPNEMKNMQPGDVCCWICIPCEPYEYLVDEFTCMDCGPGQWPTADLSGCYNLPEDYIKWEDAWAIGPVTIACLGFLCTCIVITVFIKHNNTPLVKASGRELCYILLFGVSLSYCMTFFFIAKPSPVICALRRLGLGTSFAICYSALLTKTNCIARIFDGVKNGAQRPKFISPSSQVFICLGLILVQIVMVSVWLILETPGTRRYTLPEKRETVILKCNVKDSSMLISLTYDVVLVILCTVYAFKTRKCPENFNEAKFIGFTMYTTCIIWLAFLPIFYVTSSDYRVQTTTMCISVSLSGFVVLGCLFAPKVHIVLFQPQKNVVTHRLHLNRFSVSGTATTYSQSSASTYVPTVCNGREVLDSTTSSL

In the case of C[C@@H]1CN([C@H](C)CO)C(=O)c2cccc(NC(=O)c3ccncc3)c2O[C@H]1CN(C)Cc1ccc(Cl)c(Cl)c1, the AC50 [1] is reported as 80 nM (active), the AC50 [2] is reported as 27.6 µM (active) and the AC50 [3] is reported as 7.3 µM (active). For the same compound, the AC50 [4] was 29.8 µM (active) and the AC50 [5] was 38.5 µM (active).
With CCS(=O)(=O)N1c2ccccc2CC[C@H]1C(=O)Nc1cccc(Cl)c1 the EC50 [6] was 1740 nM.
For CCN1CCN(C2=C(Nc3cccc(Br)c3)C(=O)c3ccccc3C2=O)CC1, the AC50 [7] was 8.08 µM (active), the AC50 [8] was 3.45 µM (active) and the AC50 [9] was 26.2 µM (active).
For COCC(=O)Nc1ccc2c(c1)C(=O)N(C)[C@H]1CC[C@@H](CC(=O)NCc3ccccc3Cl)O[C@@H]1CO2, the AC50 [10] was > 52 µM (inactive).
With COc1ccc2c3c([nH]c2c1)[C@@H](CO)N(Cc1ccccc1OC)CC31CN(C)C1 the AC50 [11] was 15.8 µM (active).
Compound COc1ccc(C#Cc2ccc(C(=O)N3CCC[C@@H](O)C3)cc2)c(F)c1 has an IC50 [12] of 4.29 µM.
For O=C(O)C1CCCCC1C(=O)N1CCc2ccccc2[C@H]1C(=O)NC12CC3CC(CC(C3)C1)C2 (stereo partly drawn), the AC50 [13] was > 52 µM (inactive).
For COc1ccc(/C=N\NC(=O)c2ccc([N+](=O)[O-])cc2)cc1COc1c(F)c(F)cc(F)c1F, the IC50 [14] was 15.7 µM (inactive) and the IC50 [15] was 12.4 µM (inactive).
With C[C@H]1C[C@H]2[C@@H]3CCC4=CC(=O)C=C[C@]4(C)[C@@]3(F)[C@@H](O)C[C@]2(C)[C@@]1(O)C(=O)CO [BETAMETHASONE] the IC50 (Galanin receptor type 3) was > 29.9 µM (inactive) and the EC50 (cells) was > 29.9 µM (inactive).
With CNc1cnn(-c2cccc(C(F)(F)F)c2)c(=O)c1Cl [NORFLURAZONE] the AC50 [16] was 31.6 µM (inconclusive).
